Test results reported in paper PMC3613864 (Cell, 2012).
Entries after “also recorded” stand apart in the source; their conditions may differ. Read-outs that look alike come from different tables or passages of the source. Values belong to the molecule of their own block, whether it stands above or below them.

Assays:
6133/MPL cells [1] = assay: 6133/MPL cells in vitro; format: cell-based; conditions: 6133/MPL murine cell line
phospho-histone H3 = assay: Phosphorylation of histone H3 in CMK cells; format: cell-based, human
CMK cells [2] = assay: Polyploidization, proliferation, apoptosis and CD41/CD42 expression in CMK cells; format: cell-based, human
6133/MPL cells [3] = assay: Transplantation of drug-pre-treated 6133/MPL cells into mice; format: in vivo, C57Bl/6 mice
AURKA = target: T1, AURKA (Homo sapiens, UniProt O14965); assay: Phosphorylation of Aurora kinases in CMK cells by Western blot; format: cell-based
T1 sequence (O14965 1-403): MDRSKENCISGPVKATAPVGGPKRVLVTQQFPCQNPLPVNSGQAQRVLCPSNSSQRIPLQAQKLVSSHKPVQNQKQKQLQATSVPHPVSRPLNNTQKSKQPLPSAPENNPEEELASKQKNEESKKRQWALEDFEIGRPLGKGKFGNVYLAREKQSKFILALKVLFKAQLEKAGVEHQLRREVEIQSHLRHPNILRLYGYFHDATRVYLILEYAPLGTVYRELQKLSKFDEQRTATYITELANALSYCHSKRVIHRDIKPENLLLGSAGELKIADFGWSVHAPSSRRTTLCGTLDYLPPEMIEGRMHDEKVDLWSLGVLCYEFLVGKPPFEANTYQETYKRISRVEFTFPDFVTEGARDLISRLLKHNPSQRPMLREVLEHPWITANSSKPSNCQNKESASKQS

tg-ERG cells = assay: AMKL cell line derived from ERG transgenic mice; format: cell-based; conditions: tg-ERG cells (data not shown)
[4] = system: primary human megakaryocytes; assay: Primary human megakaryocytes expanded from CD34+ cells; format: cell-based
AURKB = AURKB (Homo sapiens, UniProt Q96GD4); assay: Phosphorylation of Aurora kinases in CMK cells by Western blot; format: cell-based
CMK cells [5] = format: cell-based, human; conditions: three-day incubation
in vivo = conditions: C57Bl/6, mouse, plasma, po, 15 mg/kg
[6] = system: murine bone marrow-derived megakaryocytes; assay: Primary murine hematopoietic progenitor cells cultured with THPO; format: cell-based; conditions: primary mouse bone marrow cells cultured ex vivo
6133/MPL cells [7] = assay: Drug treatment of mice transplanted with 6133/MPL cells; format: in vivo, C57Bl/6 mice
AURKA relative to AURKB = conditions: ref Gorgun et al., 2010; Manfredi et al., 2011; cited from earlier work
[8] = Oral pharmacokinetics, plasma concentration after a single dose; conditions: single oral administration of 15 mg/kg
[9] = system: human CD41+ non-DS-AMKL blasts; assay: Human non-DS-AMKL blasts cultured ex vivo; format: cell-based; conditions: 0.1 µM, 6 days
AMKL-derived cells = assay: Phenotype in AMKL-derived cells; format: cell-based; conditions: data not shown
402 purified kinases = assay: Ambit KinomeScan kinase binding profile; conditions: of 402 kinases; 5 µM diMF
[10] = system: leukemia blasts that harbor activated oncogenic forms of KIT, FLT3, and BCR-ABL; conditions: ref Mali et al., 2011; cited from earlier work
[11] = CMK cells, 72 hr, Fig 2: K252a, latrunculin B, diMF 5 µM, SU6656 4 µM
[12] = 1 µM, CMK cells (data not shown)
[13] = CMK cells, 0.1 µM paclitaxel 18 hr then compound 2 hr

AURKB, sequence (Q96GD4 whole entry): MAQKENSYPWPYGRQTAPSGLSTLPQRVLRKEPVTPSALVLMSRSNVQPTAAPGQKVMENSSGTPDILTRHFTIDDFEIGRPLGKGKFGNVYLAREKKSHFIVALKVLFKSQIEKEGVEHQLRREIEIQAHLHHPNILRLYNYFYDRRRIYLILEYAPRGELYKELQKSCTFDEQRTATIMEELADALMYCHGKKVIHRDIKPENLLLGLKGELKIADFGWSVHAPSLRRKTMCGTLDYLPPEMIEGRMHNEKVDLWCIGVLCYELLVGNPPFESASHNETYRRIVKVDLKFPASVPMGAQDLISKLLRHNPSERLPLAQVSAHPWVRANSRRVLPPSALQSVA

phospho-AURKA (AURKA; [12]): complete loss of phospho-AURKA and AURKB
phospho-AURKB (AURKB; [12]): complete loss of phospho-AURKA and AURKB
Molecule: CCN(CCO)CCCOc1ccc2c(Nc3cc(CC(=O)Nc4cccc(F)c4)[nH]n3)ncnc2c1 [AZD1152-HQPA]
polyploidization, CD41 and CD42 expression, and apoptosis (6133/MPL cells [1]): increased polyploidization, CD41 and CD42 expression, and apoptosis
phospho-histone H3 level (phospho-histone H3): reduction in phospho-histone H3
apoptosis (CMK cells [2]; [11]): induced
polyploidization (CMK cells [2]; [11]): induced robust polyploidization
proliferation (CMK cells [2]; [11]): restricted proliferation
leukemia development after transplantation of pre-treated cells (6133/MPL cells [3]; 6133/MPL cells pre-treated 24 hr with 3 µM): failed to significantly interfere with leukemia development
AURKA phosphorylation / autophosphorylation (AURKA; [13]): reduced phosphorylation of both Aurora A and B kinases
proliferation and megakaryocyte lineage-specific surface marker expression (tg-ERG cells): induced proliferation arrest and megakaryocyte lineage-specific surface marker expression
polyploidization of primary human megakaryocytes [4]: induced robust and selective polyploidization
AURKB phosphorylation (AURKB; [13]): reduced phosphorylation of both Aurora A and B kinases

Molecule: COC(=O)[C@@]1(O)C[C@H]2O[C@]1(C)n1c3ccccc3c3c4c(c5c6ccccc6n2c5c31)C(=O)NC4 [K252a]
apoptosis (CMK cells [2]; [11]): inducing
polyploidization (CMK cells [2]; [11]): inducing
proliferation (CMK cells [2]; [11]): inhibited
screening positive: increased fraction of cells with DNA content beyond a cutoff (between 4N and 8N) compared to DMSO (CMK cells [5]): identified

Molecule: COc1cc(Nc2ncc3c(n2)-c2ccc(Cl)cc2C(c2c(F)cccc2OC)=NC3)ccc1C(=O)O [MLN8237, Alisertib]
polyploidization, CD41 and CD42 expression, and apoptosis (6133/MPL cells [1]): increased polyploidization, CD41 and CD42 expression, and apoptosis
phospho-histone H3 level (phospho-histone H3): accumulation of phospho-histone H3
Cmax (in vivo): 34.8 µM
Tmax (in vivo): 0.5 h
half-life (in vivo): 3.1 h
apoptosis (CMK cells [2]; [11]): induced
polyploidization (CMK cells [2]; [11]): induced robust polyploidization
proliferation (CMK cells [2]; [11]): restricted proliferation
animals surviving up to 120 days after transplantation of pre-treated cells (6133/MPL cells [3]; 6133/MPL cells pre-treated 24 hr with 1 µM): 80%
AURKA phosphorylation / autophosphorylation (AURKA): reduced AURKA autophosphorylation
autophosphorylation of AURKA (AURKA): inhibited autophosphorylation of AURKA
polyploidization and expression of CD41 and CD42 [6]: induced polyploidization and expression of CD41 and CD42
infiltration of leukemic cells (liver, lung) (6133/MPL cells [7]; 15 mg/kg): striking reduction of infiltration of leukemic cells
peripheral white blood cell count, spleen and liver weights (6133/MPL cells [7]; 15 mg/kg for 2 weeks vs vehicle): significantly reduced peripheral white blood cell count and spleen and liver weights
selectivity for AURKA relative to AURKB in cells (AURKA relative to AURKB): 200 fold
proliferation and megakaryocyte lineage-specific surface marker expression (tg-ERG cells): induced proliferation arrest and megakaryocyte lineage-specific surface marker expression
polyploidization of primary human megakaryocytes [4]: induced robust and selective polyploidization
bioavailability [8]: excellent bioavailability
mean plasma concentrations for at least 12 hr [8]: above 0.5 µM
polyploidization and proliferation of human non-DS AMKL cells [9]: induced both polyploidization and proliferative arrest
autophosphorylation of AURKB (AURKB; 0.1 µM, CMK cells): but not AURKB

Molecule: CN(C)S(=O)(=O)c1ccc2c(c1)/C(=C/c1cc3c([nH]1)CCCC3)C(=O)N2 [SU6656]
apoptosis (CMK cells [2]; [11]): inducing
polyploidization (CMK cells [2]; [11]): inducing
proliferation (CMK cells [2]; [11]): inhibited

Molecule: C=C1[C@@H](C)[C@H]2[C@H](Cc3ccccc3)NC(=O)[C@]23OC(=O)/C=C/[C@H](O)CCC[C@@H](C)C/C=C/[C@H]3[C@@H]1O [cytochalasin B]
screening positive: increased fraction of cells with DNA content beyond a cutoff (between 4N and 8N) compared to DMSO (CMK cells [5]): positives

number of kinases whose binding to the immobilized ligand was inhibited by more than 65% (402 purified kinases): 27
Molecule: O=S(=O)(c1cccc2cnccc12)N1CCCNCC1 [fasudil]
activity / phenotype in AMKL-derived cells compared with diMF (AMKL-derived cells): did not fully recapitulate the strong phenotype; also recorded: lack of activity
growth of leukemia cells in vivo and in vitro [10]: restricted the growth

Molecule: C/C1=C/C(=O)O[C@@H]2C[C@@H](CC[C@H](C)/C=C\CC1)O[C@@](O)([C@@H]1CSC(=O)N1)C2 [latrunculin B]
apoptosis (CMK cells [2]; [11]): inducing
polyploidization (CMK cells [2]; [11]): inducing
proliferation (CMK cells [2]; [11]): inhibited
screening positive: increased fraction of cells with DNA content beyond a cutoff (between 4N and 8N) compared to DMSO (CMK cells [5]): positives

Molecule: c1nc2nc(Nc3ccc(N4CCOCC4)cc3)nc(NC3CCCCC3)c2[nH]1 [reversine]
apoptosis (CMK cells [2]; [11]): inducing
polyploidization (CMK cells [2]; [11]): inducing
proliferation (CMK cells [2]; [11]): inhibited
screening positive: increased fraction of cells with DNA content beyond a cutoff (between 4N and 8N) compared to DMSO (CMK cells [5]): identified

Molecule: JAK3 inhibitor VI
apoptosis (CMK cells [2]): inducing
polyploidization (CMK cells [2]): inducing; also recorded: Induction of CMK polyploidization
screening positive: increased fraction of cells with DNA content beyond a cutoff (between 4N and 8N) compared to DMSO (CMK cells [5]): identified
